# Read-outs that look alike come from different tables or passages of the source.
# What was measured:
# [1] = system: Aβ 40 in conditioned medium of cells stably expressing Amyloid Precursor Protein (APP); assay: In vitro BACE cell-based assay (Aβ 40 sandwich ELISA); details: Homo sapiens, HEK293
# Method: In Vitro BACE Cell-Based Assay
# The cell-based assay measures inhibition or reduction of […] in conditioned medium of test compound treated cells expressing amyloid precursor protein.
# Cells stably expressing Amyloid Precursor Protein (APP) were plated at a density of 40K cells/well in 96 well plates (Costar). The cells were cultivated for 24 hours at 37° C. and 5% CO2 in DMEM supplemented with 10% FBS. The test compounds were then added to cells in 10-point dose response concentrations with the starting concentration being either 100 μM or 10 μM. The compounds were diluted from stock solutions in DMSO and the final DMSO concentration of the test compounds on cells was 0.1%. After 24 h of incubation with the test compounds the supernatant conditioned media was collected and the Aβ 40 levels were determined using a sandwich ELISA. The IC50 of the compound was calculated from the percent of control or percent inhibition of Aβ 40 as a function of the concentration of the test compound.
# The sandwich ELISA to detect Aβ 40 was performed in 96 well microtiter plates, which were pre-treated with goat anti-rabbit IgG (Pierce). The capture and detecting antibody pair that were used to detect Aβ 40 from cell supernatants were affinity purified pAb40 (Biosource) and biotinylated 6E10 (Signet Labs Inc.), respectively. The optimal concentration for the pAb40 antibody was 3 μg/ml in Superblock/TBS (Pierce) that was supplemented with 0.05% Tween 20 (Sigma). Optimal concentration for the detection antibody 6E10-biotinylated was 0.5 μg/ml in Superblock/TBS (Pierce) that had been supplemented with 2% normal goat serum and 2% normal mouse serum.
# Cellular supernatants were incubated with the capture antibody for 3 h at 4° C., followed by 3 wash steps in TBS-tween (0.05%). The detecting antibody incubation was for 2 h at 4° C., again followed by the wash steps as described previously. The final readout of the ELISA is Time-Resolved Fluorescence (counts per minute) using Delfia reagents Streptavidin-Europium and Enhancement solutions (Perkin Elmer) and the Victor 2 multilabel counter (Perkin Elmer).
# [2] = target: Beta Secretase enzyme (BACE) (Homo sapiens, UniProt P56817); assay: In vitro enzymatic BACE FRET assay; type: biochemical; details: read-out: BACE1 FRET assay IC50
# Method: In Vitro Enzymatic BACE FRET (Fluorescence Resonance Energy Transfer) Assay (Enzyme Assay Data in the Example Table I)
# The assay buffer used in this screen is 0.05 M acetate, pH 4.2, 10% DMSO final, 100 uM genapol (which is a nonionic detergent, below its Critical Micelle Concentration). The Beta Secretase enzyme (0.2 nM) is pre-incubated for one hour with inhibitors, typically in about 1 uL of DMSO according to a serial dilution, are added thereto. This assay is effectively started by the addition of FRET substrate (50 nM) and the combination is incubated for one hour. The FRET assay is terminated with by addition of Tris buffer, which raises the pH to neutrality, and the fluorescence is determined. The FRET substrate is a peptide with commercially available fluorophore and quencher, on opposite sides of the BACE cleavage site. Proteolytic cleavage of the FRET substrate releases quenching of fluorescence (excitation 488 nm and […]).
# Cathepsin D (Cat D) = Cathepsin D (Cat D) (Homo sapiens, UniProt P07339); assay: In vitro enzymatic Cathepsin D (Cat D) FRET assay; type: biochemical
# Method: In Vitro Enzymatic Cathepsin D (Cat D) FRET (Fluorescence Resonance Energy Transfer) Assay
# Recombinant Cat D was expressed in CHO cells. The assay buffer for CathepsinD is 0.05 M citrate pH 3.5, 10% DMSO final, 5 mM CHAPS. The Cat D enzyme (9 nM) is pre-incubated for one hour with inhibitors, typically in about 1 uL of DMSO according to a serial dilution, is added thereto. The assays are effectively started by the addition of different FRET substrates (20 nM for Cat D) and the combination is incubated for one hour. The FRET assay is terminated with by addition of Tris buffer, which raises the pH to neutrality, and the fluorescence is determined. The FRET substrate is a peptide with commercially available fluorophore and quencher, on opposite sides of the BACE cleavage site. The Cat D substrate peptide sequence is based on sequence #1 of Table 1 from Gulnik et al. FEBS Letters v413 p 379-384 1997. Proteolytic cleavage of the FRET substrate releases quenching of fluorescence (Cat D excitation 500 nm and emission 580 nm). […]
# See, for instance, examples 8, 12, 15, 16, 18, 21-23, 24, 25, 26, 29, 30, 32, 41-42, 45, 53, 54, 57, 63, 67-69, 72-74, 76, 79-81, 83 & 84 (to point to just a few; referring to data in Table 2). […] See, for instance, examples 8, 12, 15, 18, 21-23, 25, 29, 30, 32, 41-42, 45, 54, 57, 67-68, 72-73, 76, 80-81, 84, 86, 91-92 & 100 (to point out those from compound examples 1-100; and with reference to data in Table 2).
# [3] = average IC50, HEK cell assay, Aβ 40 readout
# [4] = average IC50, in vitro enzymatic BACE FRET assay
# [5] = Cathepsin D FRET assay, read-out: CatD IC50
# Chain of Beta Secretase enzyme (BACE) (P56817 46-501): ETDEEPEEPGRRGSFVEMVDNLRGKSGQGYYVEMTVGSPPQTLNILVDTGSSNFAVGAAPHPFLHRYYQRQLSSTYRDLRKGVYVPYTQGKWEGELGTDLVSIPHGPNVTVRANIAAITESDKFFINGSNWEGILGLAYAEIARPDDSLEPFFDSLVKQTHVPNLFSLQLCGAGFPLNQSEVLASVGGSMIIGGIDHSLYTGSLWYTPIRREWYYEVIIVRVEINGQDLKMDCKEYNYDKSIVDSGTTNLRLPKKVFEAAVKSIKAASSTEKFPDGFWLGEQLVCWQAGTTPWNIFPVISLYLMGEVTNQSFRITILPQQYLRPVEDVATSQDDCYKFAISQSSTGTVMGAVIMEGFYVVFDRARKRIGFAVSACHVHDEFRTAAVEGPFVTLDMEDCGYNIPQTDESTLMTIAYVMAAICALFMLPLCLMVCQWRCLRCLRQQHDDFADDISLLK
# Chain of Cathepsin D (Cat D) (P07339 65-412, species assumed): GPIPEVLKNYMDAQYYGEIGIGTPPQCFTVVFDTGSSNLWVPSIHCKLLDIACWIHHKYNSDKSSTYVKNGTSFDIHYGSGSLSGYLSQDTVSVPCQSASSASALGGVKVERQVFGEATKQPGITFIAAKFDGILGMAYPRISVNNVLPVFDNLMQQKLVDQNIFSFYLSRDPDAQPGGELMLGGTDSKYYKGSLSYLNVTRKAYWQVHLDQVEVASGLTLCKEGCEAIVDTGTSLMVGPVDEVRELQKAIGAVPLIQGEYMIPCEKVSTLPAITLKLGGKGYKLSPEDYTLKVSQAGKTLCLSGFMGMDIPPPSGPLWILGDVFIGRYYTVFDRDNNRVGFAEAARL
Compound,"IC50 [1, 3] [µM]","IC50 [2, 4] [µM]",IC50 (Cathepsin D (Cat D); [5]) [µM],"IC50 ([1]; HEK cells, average IC50) [µM]",IC50 ([2]; average IC50) [µM],IC50 (Cathepsin D (Cat D); read-out: CatD IC50) [µM],"IC50 ([1]; HEK cell, average IC50) [µM]",IC50 (Cathepsin D (Cat D); text summary referring to data in Table 2) [µM]
"CC#CCOc1cnc(C(=O)Nc2ccc3c(c2)[C@@]2(C)N=C(N)C(C)(C)S(=O)(=O)[C@@H]2CC(C)(C)O3)cn1 [Example 98, N-((4aR,11bR)-2-amino-3,3,6,6,11b-pentamethyl-4,4-dioxido-4a,5,6,11b-tetrahydro-3H-[1]benzoxepino[4,5-b][1,4]thiazin-10-yl)-5-(2-butyn-1-yloxy)-2-pyrazinecarboxamide]",0.0005,0.002,318,–,–,–,–,–
"Cc1cc(C#N)cnc1C(=O)Nc1ccc2c(c1)[C@@]1(C)N=C(N)C(C)(C)S(=O)(=O)[C@@H]1CCO2 [Example 192, N-((4aR,11bR)-2-amino-3,3,11b-trimethyl-4,4-dioxido-4a,5,6,11b-tetrahydro-3H-[1]benzoxepino[4,5-b][1,4]thiazin-10-yl)-5-cyano-3-methyl-2-pyridinecarboxamide]",–,–,–,0.001,0.002,434,–,–
"CC1(C)C(N)=N[C@]2(C)c3cc(Nc4ncnc5cc(OCC6CC6)cnc45)ccc3OCC[C@H]2S1(=O)=O [Example 167, (4aR,11bR)-N1^~10^~-(7-(cyclopropylmethoxy)pyrido[3,2-d]pyrimidin-4-yl)-3,3,11b-trimethyl-4a,5,6,11b-tetrahydro-3H-[1]benzoxepino[4,5-b][1,4]thiazine-2,10-diamine 4,4-dioxide]",–,–,–,0.029,0.008,384,–,–
"COc1cnc(C(=O)Nc2ccc3c(c2)[C@@]2(CF)N=C(N)C(C)(C)S(=O)(=O)[C@H]2C[C@H](C)O3)cn1 [Example 108, N-((4aS,6S,11bS)-2-amino-11b-(fluoromethyl)-3,3,6-trimethyl-4,4-dioxido-4a,5,6,11b-tetrahydro-3H-[1]benzoxepino[4,5-b][1,4]thiazin-10-yl)-5-methoxy-2-pyrazinecarboxamide]",0.018,0.013,388,–,–,–,–,–
"COc1cnc(C(=O)Nc2ccc3c(c2)[C@@]2(C)N=C(N)C(C)(C)S(=O)(=O)[C@H]2CCO3)c(C)c1 [Example 161, N-((4aS,11bR)-2-amino-3,3,11b-trimethyl-4,4-dioxido-4a,5,6,11b-tetrahydro-3H-[1]benzoxepino[4,5-b][1,4]thiazin-10-yl)-5-methoxy-3-methyl-2-pyridinecarboxamide]",–,–,–,0.008,0.032,878,–,–
"CC1(C)C(N)=N[C@]2(C)c3cc(Nc4ncccc4C#N)ccc3OCC[C@H]2S1(=O)=O [Example 7, 2-(((4aR,11bR)-2-amino-3,3,11b-trimethyl-4,4-dioxido-4a,5,6,11b-tetrahydro-3H-[1]benzoxepino[4,5-b][1,4]thiazin-10-yl)amino)-3-pyridinecarbonitrile]",–,–,–,–,0.116,252,0.124,–
"COCCOc1cnc2c(Nc3ccc4c(c3)[C@@]3(C)N=C(N)C(C)(C)S(=O)(=O)[C@@H]3C[C@H](C)O4)nccc2n1 [Example 139, (4aR,6S,11bR)-N^~10^~-(2-(2-methoxyethoxy)pyrido[3,4-b]pyrazin-5-yl)-3,3,6,11b-tetramethyl-4a,5,6,11b-tetrahydro-3H-[1]benzoxepino[4,5-b][1,4]thiazine-2,10-diamine 4,4-dioxide]",0.008,0.007,304,–,–,–,–,–
"Cc1cc(OC(F)F)cnc1C(=O)Nc1ccc2c(c1)[C@@]1(C)N=C(N)C(C)(C)S(=O)(=O)[C@@H]1CCO2 [Example 157, N-((4aR,11bR)-2-amino-3,3,11b-trimethyl-4,4-dioxido-4a,5,6,11b-tetrahydro-3H-[1]benzoxepino[4,5-b][1,4]thiazin-10-yl)-5-(difluoromethoxy)-3-methyl-2-pyridinecarboxamide]",0.003,0.002,1200,–,–,–,–,–
"Cc1cc(OC(F)F)cnc1C(=O)Nc1ccc2c(c1)[C@@]1(C)N=C(N)C(C)(C)S(=O)(=O)[C@@H]1CCC2 [Example 41, N-((4aR,11bR)-2-amino-3,3,11b-trimethyl-4,4-dioxido-3,4a,5,6,7,11b-hexahydrobenzo[3,4]cyclohepta[1,2-b][1,4]thiazin-10-yl)-5-(difluoromethoxy)-3-methyl-2-pyridinecarboxamide]",–,–,–,–,0.018,5550,0.005,> 1200
"Cc1cc(Cl)cnc1C(=O)Nc1ccc2c(c1)[C@@]1(C)N=C(N)C(C)(C)S(=O)(=O)[C@@H]1C[C@@H](C)O2 [Example 180, N-((4aR,6R,11bR)-2-amino-3,3,6,11b-tetramethyl-4,4-dioxido-4a,5,6,11b-tetrahydro-3H-[1]benzoxepino[4,5-b][1,4]thiazin-10-yl)-5-chloro-3-methyl-2-pyridinecarboxamide]",–,–,–,0.005,0.003,90.4,–,–
"COc1cnc2c(Nc3ccc4c(c3)[C@@]3(C)N=C(N)C(C)(C)S(=O)(=O)[C@@H]3CCO4)nccc2n1 [Example 156, (4aR,11bR)-N^~10^~-(2-methoxypyrido[3,4-b]pyrazin-5-yl)-3,3,11b-trimethyl-4a,5,6,11b-tetrahydro-3H-[1]benzoxepino[4,5-b][1,4]thiazine-2,10-diamine 4,4-dioxide]",0.014,0.011,1030,–,–,–,–,–
"Cc1cc(Cl)cnc1C(=O)Nc1ccc2c(c1)[C@@]1(C)N=C(N)C(C)(C)S(=O)(=O)[C@H]1C[C@@H](C)O2 [Example 181, N-((4aS,6R,11bR)-2-amino-3,3,6,11b-tetramethyl-4,4-dioxido-4a,5,6,11b-tetrahydro-3H-[1]benzoxepino[4,5-b][1,4]thiazin-10-yl)-5-chloro-3-methyl-2-pyridinecarboxamide]",–,–,–,0.0008,0.001,124,–,–
"Cc1cc(Cl)cnc1C(=O)Nc1ccc2c(c1)[C@@]1(C)N=C(N)C(C)(C)S(=O)(=O)[C@@H]1CC(C)(C)O2 [Example 190, N-((4aR,11bR)-2-amino-3,3,6,6,11b-pentamethyl-4,4-dioxido-4a,5,6,11b-tetrahydro-3H-[1]benzoxepino[4,5-b][1,4]thiazin-10-yl)-5-chloro-3-methyl-2-pyridinecarboxamide]",–,–,–,0.002,0.005,441,–,–
"CC#CCOc1cnc(C(=O)Nc2ccc3c(c2)[C@@]2(C)N=C(N)C(C)(C)S(=O)(=O)[C@]2(F)CCO3)cn1 [Example 94, N-((4aR,11bR)-2-amino-4a-fluoro-3,3,11b-trimethyl-4,4-dioxido-4a,5,6,11b-tetrahydro-3H-[1]benzoxepino[4,5-b][1,4]thiazin-10-yl)-5-(2-butyn-1-yloxy)-2-pyrazinecarboxamide]",0.008,–,> 400,–,–,–,–,–
